The values that follow come from patent EP0339193A1, “Peptide ligands for bombesin receptors” (FARMITALIA CARLO ERBA S.r.l., priority 1988, dated 1989).

Structures can show the parent of a compound that is named as a salt. Numbered stars: 1 amine (or outer) side, 2 acyl side, 3 side chain; on linkers, the order of the positions; unused ones are H or OH. Square brackets hold non-standard residues; d marks the D form. Ends that are not written are not given here. Peptide text beside a SMILES is read from it. * marks the point of attachment. His(Dnp) = O=C([C@H](Cc1cn(-c2ccc([N+](=O)[O-])cc2[N+](=O)[O-])cn1)N[*:1])[*:2]; Dnp = O=[N+]([O-])c1ccc(*)c([N+](=O)[O-])c1; Boc = CC(C)(C)OC(=O)*; NHPentyl = CCCCCN*

T1 sequence (P21729 whole entry): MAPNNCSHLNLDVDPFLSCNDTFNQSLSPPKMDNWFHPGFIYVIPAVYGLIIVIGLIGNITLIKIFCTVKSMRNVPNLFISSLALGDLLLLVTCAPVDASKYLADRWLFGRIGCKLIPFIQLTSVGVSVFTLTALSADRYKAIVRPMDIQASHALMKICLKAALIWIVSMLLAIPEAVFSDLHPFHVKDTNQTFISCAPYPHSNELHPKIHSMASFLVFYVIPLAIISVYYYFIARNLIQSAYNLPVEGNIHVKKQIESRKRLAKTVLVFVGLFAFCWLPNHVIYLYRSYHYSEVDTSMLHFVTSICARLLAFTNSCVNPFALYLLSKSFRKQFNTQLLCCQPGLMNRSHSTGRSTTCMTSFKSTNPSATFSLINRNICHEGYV

One assay relates to rat grooming behaviour stimulated by bombesin. Nature of the assay: Grooming behaviour in the rat after i.c.v. administration (inhibition of bombesin-stimulated grooming). The assay is classed as in vivo. The following applies: BBS 0.01 µg/rat + XXI 10 µg/rat in combination. The text has this:
The antagonistic activity has been evaluated both in vitro and in vivo; in vitro, as inhibition of the bombesin-induced DNA synthesis in Swiss 3T3 cells (A.N. Corps et al. (1985) Biochem. J., 231, 781-785) (Table 2) and rat urinary bladder contraction (M. Broccardo et al. (1975) Br. J.Pharmac., 55, 221-227) (Table 3); in vivo, by i.c.v. administration, as inhibition of the rat grooming behaviour stimulated by bombesin (A. Cowan et al. (1985) Life Sciences, 37, 135-145) (Table 4).
On to `CSCC[C@H](NC(=O)[C@@H](CC(C)C)NC(=O)[C@H](Cc1c[nH]cn1)NC(=O)CNC(=O)[C@@H](NC(=O)[C@H](C)NC(=O)[C@H](Cc1c[nH]c2ccccc12)NC(=O)[C@H](CCC(N)=O)NC(=O)[C@@H](N)[C@@H](C)O)C(C)C)C(N)=O` [XXI, H-Thr-Gln-Trp-Ala-Val-Gly-His-leu-Met-NH₂.CF₃COOH], for which the Grooming score amounted to 35.

Still in this assay, the particulars now being: BBS 0.01 µg/rat alone.
In turn, “Glp-Gln-Arg-Leu-Gly-Asn-Gln-Trp-Ala-Val-Gly-His-Leu-Met-NH₂ [BBS, reference compound]” returned a Grooming score of 55.

The assay is the same for the next values; noted with them: peptide XXI 10 µg/rat alone.
`CSCC[C@H](NC(=O)[C@@H](CC(C)C)NC(=O)[C@H](Cc1c[nH]cn1)NC(=O)CNC(=O)[C@@H](NC(=O)[C@H](C)NC(=O)[C@H](Cc1c[nH]c2ccccc12)NC(=O)[C@H](CCC(N)=O)NC(=O)[C@@H](N)[C@@H](C)O)C(C)C)C(N)=O` [XXI, H-Thr-Gln-Trp-Ala-Val-Gly-His-leu-Met-NH₂.CF₃COOH] returned a Grooming score of 15.

A further assay concerns the target T1, bombesin receptors (Mus musculus, UniProt P21729).
T1 construct: has been determined on Swiss 3T3 fibroblasts; endogenous in cells; host or cells: mouse Swiss 3T3 fibroblasts
Nature of the assay: Binding affinity for the bombesin receptors on Swiss 3T3 fibroblasts. The conditions noted are these: binding affinity on mouse Swiss 3T3 fibroblasts. The text has this: The binding affinity of the compounds of the present invention for the bombesin receptors has been determined on Swiss 3T3 fibroblasts (I. Zachary and E. Rozengurt (1985) Proc. Natl. Acad. Sci. USA, 82, 7616-7620) (Table 1).
In turn, “Boc-Thr-Gln-Trp-Ala-Val-Gly-His(Dnp)-Leu-NH₂ (Boc-TQWAVG[His(Dnp)]L-NH2; SMILES CC(C)C[C@H](NC(=O)[C@H](Cc1cn(-c2ccc([N+](=O)[O-])cc2[N+](=O)[O-])cn1)NC(=O)CNC(=O)[C@@H](NC(=O)[C@H](C)NC(=O)[C@H](Cc1c[nH]c2ccccc12)NC(=O)[C@H](CCC(N)=O)NC(=O)[C@@H](NC(=O)OC(C)(C)C)[C@@H](C)O)C(C)C)C(N)=O) [XXXII]” gave an ID₅₀ of 770 ± 13 nM.
The same measure, in the same setting: then “H-Thr-Gln-Trp-Ala-Val-Gly-His(Dnp)-leu-Met-NH₂ . HCl (H-TQWAVGH(Dnp); not fully specified (C-terminus); also: HCl salt) [XX]”, with 63,000 nM; and “H-Thr-Gln-Trp-Ala-Val-Gly-His(Dnp)-Leu-Met-NH₂ . HCl (TQWAVGH; His(Dnp)-Leu-Met-NH2 extension; HCl salt; printed: Thr-Gln-Trp-Ala-Val-Gly-His) [XXII]”, with 5,800 ± 750 nM; and “H-Thr-Gln-Trp-Ala-Val-Gly-His(Dnp)-Leu-NH(CH₂)₄ CH₃.CF₃COOH (H-TQWAVG[His(Dnp)]L-{NH(CH2)4CH3}; also: TFA salt) [XXVII]”, with 335 ± 101 nM.
As for “Glp-Gln-Arg-Leu-Gly-Asn-Gln-Trp-Ala-Val-Gly-His-Leu-Met-NH₂ [BBS, reference compound]”, the ID₅₀ is recorded as 12.6 ± 3.8 nM.
The same measure, in the same setting: then “p-GRP: porcine gastrin releasing peptide (APVSVGGGTVLAKMYPRGNHWAVGHLM; ends and bridges not checked; UniProt P63153 24-50, looked up) [reference compound]”, with 17.6 ± 4.0 nM.

Still in this assay, the particulars now being: binding affinity on mouse Swiss 3T3 fibroblasts; read-out: ID₅₀.
For `CCCCCNC(=O)[C@H](CC(C)C)NC(=O)[C@H](Cc1c[nH]cn1)NC(=O)CNC(=O)[C@@H](NC(=O)[C@H](C)NC(=O)[C@H](Cc1c[nH]c2ccccc12)NC(=O)[C@H](CCC(N)=O)NC(=O)[C@@H](N)[C@@H](C)O)C(C)C` [XXVIII, H-Thr-Gln-Trp-Ala-Val-Gly-His-Leu-NH(CH₂)₄CH₃. 2CF₃COOH] (H-TQWAVGHL-NHPentyl), the IC50 turned out to be 76 ± 30 nM.
On the same count and under the same terms, then `CSCC[C@H](NC(=O)[C@H](CC(C)C)NC(=O)[C@@H](Cc1ccccc1)NC(=O)CNC(=O)[C@@H](NC(=O)[C@H](C)NC(=O)[C@H](Cc1c[nH]c2ccccc12)NC(=O)[C@H](CCC(N)=O)NC(=O)[C@@H](NC(=O)OC(C)(C)C)[C@@H](C)O)C(C)C)C(N)=O` [XVI, Boc-Thr-Gln-Trp-Ala-Val-Gly-phe-Leu-Met-NH₂] (Boc-TQWAVG[dF]LM-NH2), with 19500 nM; and `CSCC[C@H](NC(=O)[C@H](CC(C)C)NC(=O)[C@H](Cc1c[nH]cn1)NC(=O)CNC(=O)[C@@H](NC(=O)[C@H](C)NC(=O)[C@H](Cc1c[nH]c2ccccc12)NC(=O)[C@H](CCC(N)=O)NC(=O)[C@@H](N)CC(N)=O)C(C)C)C(N)=O` [BBS(6-14)nonapeptide, reference compound], with 9.4 ± 3.1 nM; and `CSCC[C@H](NC(=O)[C@H](CC(C)C)NC(=O)[C@@H](C)NC(=O)CNC(=O)[C@@H](NC(=O)[C@H](C)NC(=O)[C@H](Cc1c[nH]c2ccccc12)NC(=O)[C@H](CCC(N)=O)NC(=O)[C@@H](NC(=O)OC(C)(C)C)[C@@H](C)O)C(C)C)C(N)=O` [XXXIV, Boc-Thr-Gln-Trp-Ala-Val-Gly-ala-Leu-Met-NH₂] (Boc-TQWAVG[dA]LM-NH2), with 18200 nM.
The same measure, in the same setting: next, “TQWAVGLM-NH2 [XIX, HCl. H-Thr-Gln-Trp-Ala-Val-Gly-Leu-Met-NH₂]”: 3400 nM; “KTQWAVGALM-NH2 [XXV, H-Lys-Thr-Gln-Trp-Ala-Val-Gly-Ala-Leu-Met-NH₂ . 2HCl]”: 970 ± 4 nM; “RTQWAVGALM-NH2 [XXVI, H-Arg-Thr-Gln-Trp-Ala-Val-Gly-Ala-Leu-Met-NH₂. 2CF₃COOH]”: 200 ± 60 nM.
`CC(C)C[C@H](NC(=O)[C@H](Cc1c[nH]cn1)NC(=O)CNC(=O)[C@@H](NC(=O)[C@H](C)NC(=O)[C@H](Cc1c[nH]c2ccccc12)NC(=O)[C@H](CCC(N)=O)NC(=O)[C@@H](NC(=O)OC(C)(C)C)[C@@H](C)O)C(C)C)C(N)=O` [XXXIII, Boc-Thr-Gln-Trp-Ala-Val-Gly-His-Leu-NH₂] (Boc-TQWAVGHL-NH2): the IC50 came to 556 ± 128 nM.
Same read-out and setting: next, `CSCC[C@H](NC(=O)[C@@H](CC(C)C)NC(=O)[C@H](Cc1c[nH]cn1)NC(=O)CNC(=O)[C@@H](NC(=O)[C@H](C)NC(=O)[C@H](Cc1c[nH]c2ccccc12)NC(=O)[C@H](CCC(N)=O)NC(=O)[C@@H](N)[C@@H](C)O)C(C)C)C(N)=O` [XXI, H-Thr-Gln-Trp-Ala-Val-Gly-His-leu-Met-NH₂.CF₃COOH]: 10000 nM.
Regarding “TQWAVGFLM-NH2 [XXIII, H-Thr-Gln-Trp-Ala-Val-Gly-Phe-Leu-Met-NH₂.CF₃COOH]”, the IC50 is 4700 nM.
Same read-out and setting: then `CSCC[C@H](NC(=O)[C@H](CC(C)C)NC(=O)CNC(=O)[C@@H](NC(=O)[C@H](C)NC(=O)[C@H](Cc1c[nH]c2ccccc12)NC(=O)[C@H](CCC(N)=O)NC(=O)[C@@H](NC(=O)OC(C)(C)C)[C@@H](C)O)C(C)C)C(N)=O` [XVIII, Boc-Thr-Gln-Trp-Ala-Val-Gly-Leu-Met-NH₂] (Boc-TQWAVGLM-NH2), with 1000 nM; and “TQWAVGSLM-NH2 [XXIV, H-Thr-Gln-Trp-Ala-Val-Gly-Ser-Leu-Met-NH₂.CF₃COOH]”, with 590 ± 130 nM.
Regarding `CSCC[C@H](NC(=O)[C@H](CC(C)C)NC(=O)[C@@H](Cc1ccccc1)NC(=O)CNC(=O)[C@@H](NC(=O)[C@H](C)NC(=O)[C@H](Cc1c[nH]c2ccccc12)NC(=O)[C@H](CCC(N)=O)NC(=O)[C@@H](N)[C@@H](C)O)C(C)C)C(N)=O` [XVII, HCl.H-Thr-Gln-Trp-Ala-Val-Gly-phe-Leu-Met-NH₂] (H-TQWAVG[dF]LM-NH2), the IC50 turned out to be 32500 nM.
